Bridge positions count the residues as written; N and C are the ends. Square brackets hold non-standard residues; d marks the D form. Peptide text beside a SMILES is read from it. * marks the point of attachment. 2Nal = N[C@@H](Cc1ccc2ccccc2c1)C(=O)O; Benzoyl(4-F) = O=C(c1ccc(F)cc1)*; Cit = NC(=O)NCCC[C@H](N)C(=O)O
Experiments:
[1] = test system: PC3 cells; experiment: MIP3α secretion by PC3 cells (ELISA); format: cell-based
Procedure: (§1) In this example, regulation of the chemokine MIP3α (macrophage inflammatory protein 3α) was examined. […] In FIG. 1B, PC3 (left panel) and PC3-CXCR4.5 (right panel) cells were stimulated with the indicated concentrations of CXCL12 for 48 hours and MIP3α secretion was assessed by ELISA. The results represent the average of triplicates±STDEV.
(§2) The effects of the CXCR4 antagonist AMD3100 and of 4F-benzoyl-TN14003 (4FB-TN14003), hitherto known as a CXCR4 antagonist, on MIP3α secretion were further tested. […] In FIG. 1C, CXCR4 signaling in PC3 (left panel) and PC3-CXCR4.5 (right panel) cells was inhibited with anti-CXCL12 antibodies (αCXCL12) and Pertussis toxin (PTX) treatments alone or in combination with CXCL12, as indicated. Secretion of MIP3α was assessed by ELISA. The results represent the average of triplicates±STDEV.

[2] = test system: PC3-CXCR4.5 cells; experiment: MIP3α secretion by PC3-CXCR4.5 cells (ELISA); format: cell-based
Procedure: as §1, §2

[3] = test system: human primary keratinocytes; experiment: Proliferation and survival of keratinocytes; format: cell-based; conditions: AMD-3100 20 μM; 4F-benzoyl-TN14003 4-20 μM
Procedure: (§3) The effect of CXCR4 antagonists on the survival of freshly isolated normal CD4^+ T cells, CD34^+ stem cells and keratinocytes was examined. The proliferation and survival of keratinocytes was not inhibited by CXCR4 antagonists AMD-3100 (20 μM) and 4F-benzoyl-TN14003 (4-20 μM) or the natural ligand CXCL12 (FIG. 2C). The proliferation and survival of CD4^+ T cells was not inhibited by CXCR4 antagonists AMD-3100 (20 μM).

[4] = test system: human CD4+ T cells; experiment: Proliferation and survival of CD4+ T cells; format: cell-based; conditions: AMD-3100 20 μM; 4F-benzoyl-TN14003 4-20 μM
Procedure: as §3

[5] = test system: HL-60 cells; experiment: Proliferation and apoptosis (Annexin V) of HL-60 cells; format: cell-based, human
[6] = test system: PC3-CXCR4.5 cells; experiment: Proliferation of PC3-CXCR4.5 prostate tumor cells; format: cell-based
Procedure: (§4) Next, the effect of the CXCR4 modulators on PC3 and PC3-CXCR4.5 prostate tumor cells was tested. […] The proliferation induced by 4F-benzoyl-TN14003 was dose-dependent (FIG. 3B).

[7] = test system: human CD34+ hematopoietic stem cells; conditions: AMD-3100 20 μM
[8] = test system: U-87; experiment: Proliferation of U-87 glioblastoma cells; format: cell-based
[9] = test system: PC3 cells; experiment: Proliferation of PC3 prostate tumor cells; format: cell-based
Procedure: as §4

[10] = test system: 22Rv1; experiment: Proliferation of 22Rv1 prostate carcinoma cells; format: cell-based
[11] = test system: SKBR3; experiment: Proliferation of SKBR3 breast carcinoma cells; format: cell-based
[12] = test system: NB4 cells; experiment: Proliferation of NB4 AML cells; format: cell-based, human
[13] = test system: K562L cells; experiment: K562L (luciferase) CML model, CCCD camera; format: in vivo, NOD/SCID mice
Procedure: In order to monitor the progression and localization of leukemic cells in vivo, the human CML tumor cell lines K562 (K562L) was stably transduced with a retrovirus carrying the luciferase gene. This cell line was injected IP into NOD/SCID mice (2.5×10^5, 5×10^5, 10^6, 2×10^6 per mouse; FIGS. 18 A-D, respectively) that were pretreated with a sub-lethal dose of radiation in order to diminish any natural killer cell activity and enhance acceptance of the tumor cells. Twenty-four hr after injection of the cells, the light generated internally by the luciferase expressed in the tumor cells and then transmitted through the animal's tissues was monitored externally using a cooled charge-coupled device camera (CCCD). The substrate luciferin was provided exogenously via IP injection. […] Quantitation was achieved by integrating the signal intensity using the Metaview software.
Two therapeutic approaches were studied using this model. […] In addition, the effect of 4F-benzoyl-TN14003 on the growth of cells in vivo was investigated.
Further, the effect of 4F-benzoyl-TN14003 on K562L tumor development was studied. 4F-benzoyl-TN14003 was injected i.p into NOD/SCID mice in the amount of 4 mg/Kg per mouse/per injection. The first injection of 4F-benzoyl-TN14003 was given immediately after the injection of K562-luc cells in an opposite route of injection on the peritoneum. Further injections of 4F-benzoyl-TN14003 were given every three days. Mice were monitored under the CCCD camera, 24 hr after each injection at serial time points, every three days.
4F-benzoyl-TN14003 was injected i.p into NOD/SCID mice in the amount of 2 mg/Kg whereas AMD-3100 was injected 4 mg/Kg per mouse/per injection. The first injection was given 2 days after the injection of K562-luc cells. Further injections were given on days 5, 7 and 11. Mice (n=3) were monitored under the CCCD camera on day 17 after injection of cells.

[14] = test system: ARH77; experiment: Proliferation and apoptosis (annexin) of ARH77 MM cells; format: cell-based, human; conditions: 4F-benzoyl-TN14003 0.4-40 μM
[15] = test system: NCI human MM cells; experiment: Proliferation and apoptosis (annexin) of NCI MM cells; format: cell-based; conditions: 4F-benzoyl-TN14003 0.4-40 μM
[16] = test system: BM derived CD138+ MM cells; experiment: Survival and apoptosis of BM derived cells of MM patients; format: cell-based, human
[17] = test system: K562-CXCR4; experiment: Proliferation and apoptosis (Annexin V) of K562 cells over-expressing CXCR4; format: cell-based, human; conditions: K562 high CXCR4; 4F-benzoyl-TN14003 4-20 μM
Source text: (§5) The proliferation and survival of the CML K562 cells or K562 cells that over-express CXCR4 (indicated “CXCR4 high” or “K562-CXCR4”) was first studied.

[18] = test system: BM derived CD34+ cells; experiment: Survival of CD34+ cells in BM samples of MM patients; format: cell-based, human; conditions: 8 μM, 24 hr
[19] = test system: U87 glioma cells; experiment: Survival and death of U87 glioma cells (Annexin V); format: cell-based
Procedure: U87 cells were treated with 4F-benzoyl-TN14003 and tested for their survival (FIG. 15A) and death (FIG. 15B).

[20] = test system: U266; experiment: Proliferation and apoptosis (annexin) of U266 MM cells; format: cell-based, human; conditions: 4F-benzoyl-TN14003 0.4-40 μM
[21] = test system: human NB4 leukemic cells; experiment: NB4 leukemic xenograft model; format: in vivo, nude mice
Procedure: Acute promyelocytic leukemia (APL)-derived NB4 cell is extensively used as an in vitro and in vivo model system for studying human leukemia. To investigate the therapeutic anti-tumor potential of the CXCR4 antagonist 4F-benzoyl-TN14003 against human leukemic cells, 10×10^6 NB4 cells were injected subcutaneously (s.c) into immunodeficient nude mice (n=5). After 14 days, tumors were established at the size of 0.4 cm^2, and mice were divided into 4F-benzoyl-TN14003-treated (8 mg/Kg, open squares) and PBS-treated (control, full diamonds) groups. The 4F-benzoyl-TN14003 drug solution was administered intraperitoneal (i.p) each day for 5 days, followed by 2 days without drug, and then 4 additional daily injections (total of 9 injections, FIG. 16).
To further test the effect of 4F-benzoyl-TN14003 against human leukemic cells, 5×10^6 NB4 cells were injected subcutaneously (s.c) into immunodeficient nude mice (n=5). After 14 days, tumors were very small, at the size of 0.02 cm^2, and mice were divided into 4F-benzoyl-TN14003-treated (open squares) and PBS-treated (control, full diamonds) groups. The 4F-benzoyl-TN14003 drug solution was administered subcutaneously (8 mg/Kg) each day for 4 days (total of 4 injections, FIG. 17A). On day 20, all control mice developed tumors (0.49±0.1 cm^2), whereas in the treated mouse group, only 1 mouse developed a small tumor.
On day 31, all control mice developed big tumors in size (FIG. 17A) and weight (FIG. 17B), whereas in the treated group, 4/5 mice developed smaller tumors in size and weight.

[22] = test system: Jurkat cells; experiment: Migration of Jurkat cells in response to CXCL12; format: cell-based, human; conditions: CXCL12 50 ng/ml; peptide incubated with Proteinase K
Source text: AMD3100 was purchased from Sigma, Israel.

[23] = test system: K562 cells; experiment: Proliferation and apoptosis (Annexin V) of CML K562 cells; format: cell-based, human; conditions: K562 (low CXCR4); 4F-benzoyl-TN14003 4-20 μM
Source text: as §5

Pertussis toxin
MIP3α secretion [1]: effectively inhibited the secretion of MIP3α | MIP3α secretion ([2]; ELISA): secretion of MIP3α was decreased | MIP3α secretion ([2]; PTX in combination with CXCL12): did not demonstrate an inhibitory effect

c1cc(CN2CCCNCCNCCCNCC2)ccc1CN1CCCNCCNCCCNCC1 [AMD-3100, reference compound]
proliferation and survival of keratinocytes [3]: not inhibited | proliferation and survival of CD4+ T cells [4]: not inhibited | effect of pretreatment with AMD-3100 on the effect of 4F-benzoyl-TN14003 ([5]; AMD-3100 50 μM pretreatment): abolished the effect of 4F-benzoyl-TN14003 | proliferation [6]: induced the proliferation of prostate cancer cells | CD34+ stem cell numbers [7]: did not affect cell numbers | proliferation [8]: either stimulated or not affected | proliferation [9]: induced the proliferation of prostate cancer cells | proliferation [10]: either stimulated or not affected | proliferation [11]: either stimulated or not affected | effect of pretreatment with AMD-3100 on the inhibitory effect of 4F-benzoyl-TN14003 ([12]; NB4 cells): abolished

CXCL12: chemokine, CXCR4's only natural ligand
proliferation and survival of keratinocytes [3]: not inhibited | proliferation and survival of CD4+ T cells [4]: induced T cell proliferation | proliferation [6]: induced the proliferation of prostate cancer cells | CD34+ stem cell numbers [7]: did not affect cell numbers | proliferation [8]: either stimulated or not affected | proliferation [9]: induced the proliferation of prostate cancer cells | proliferation [10]: either stimulated or not affected | proliferation [11]: either stimulated or not affected

Cc1ccc(NC(=O)c2ccc(CN3CCN(C)CC3)cc2)cc1Nc1nccc(-c2cccnc2)n1 [STI571]
tumor development of K562L cells ([13]; 40 mg/Kg IP, FIG. 20): inhibit tumor development | signal intensities over time ([13]; 40 mg/Kg, FIG. 19): significant reduction in signal intensities

N=C(N)NCCC[C@H](NC(=O)[C@@H]1CSSC[C@H](NC(=O)[C@H](Cc2ccc3ccccc3c2)NC(=O)[C@H](CCCNC(=N)N)NC(=O)[C@H](CCCNC(=N)N)NC(=O)c2ccc(F)cc2)C(=O)N[C@@H](Cc2ccc(O)cc2)C(=O)N[C@@H](CCCNC(N)=O)C(=O)N[C@@H](CCCCN)C(=O)N[C@H](CCCCN)C(=O)N2CCC[C@H]2C(=O)N[C@@H](Cc2ccc(O)cc2)C(=O)N[C@@H](CCCNC(=N)N)C(=O)N[C@@H](CCCNC(N)=O)C(=O)N1)C(N)=O [4F-benzoyl-TN14003, 4F-benzoyl-Arg-Arg-Nal-Cys-Tyr-Cit-Lys-DLys-Pro-Tyr-Arg-Cit-Cys-Arg-NH2] ({Benzoyl(4-F)}-RR[2Nal]CY[Cit]K[dK]PYR[Cit]CR-NH2; disulfide 4-13)
proliferation and survival of keratinocytes [3]: not inhibited | apoptotic cell death (annexin assay) [14]: stimulated apoptotic cell death | growth [14]: inhibited the growth | apoptotic cell death (annexin assay) [15]: stimulated apoptotic cell death | growth [15]: inhibited the growth | proliferation and survival of CD4+ T cells [4]: induced T cell proliferation | apoptotic cell death (Annexin V assay) ([5]; 4F-benzoyl-TN14003 4-20 μM): stimulate apoptotic cell death | growth ([5]; 4F-benzoyl-TN14003 4-20 μM): inhibit the growth | apoptosis of CD138+ MM cells ([16]; 8 μM, 24 hr): induced apoptosis | sensitivity of normal BM samples or BM samples with low percentage of MM cells ([16]; freshly isolated BM cells): not sensitive to treatment | sensitivity of BM derived samples with high percentage of MM ([16]; freshly isolated BM cells of MM patients): sensitive to treatment | proliferation [6]: induced the proliferation of prostate cancer cells | proliferation [8]: either stimulated or not affected | apoptotic cell death (Annexin V assay) [17]: stimulated apoptotic cell death | growth [17]: inhibited the growth | proliferation [9]: induced the proliferation of prostate cancer cells | percentage of CD34+ cells [18]: remained unaffected | proliferation [10]: either stimulated or not affected | proliferation [11]: either stimulated or not affected | tumor cell death of glioma cells [19]: induce tumor cell death | apoptotic cell death (annexin assay) [20]: stimulated apoptotic cell death | growth [20]: inhibited the growth | sensitivity of NB4 cells (inhibitory effect) ([12]; compared with HL-60): less sensitive | mice that developed smaller tumors in size and weight on day 31 ([21]; 8 mg/Kg s.c. each day for 4 days): 4/5 | mice that developed a tumor on day 20 ([21]; 8 mg/Kg s.c. each day for 4 days, n=5, all control mice developed tumors): 1 | tumor growth ([21]; established tumors 0.4 cm^2, 8 mg/Kg i.p., 9 injections): tumor growth was arrested | inhibition in K562L tumor development ([13]; 2 mg/Kg i.p. days 2, 5, 7, 11, day 17, FIG. 21): > 90% | inhibition in K562L tumor development over time ([13]; 4 mg/Kg i.p. every three days, FIG. 20): 50% | activity on migration of Jurkat cells in response to CXCL12 after treatment of the peptide with proteinease K [22]: abolished the activity of the peptide | MIP3α secretion ([2]; ELISA): induced in both cell lines MIP3α secretion in an agonist manner | apoptotic cell death (Annexin V assay) [23]: stimulated apoptotic cell death | growth [23]: inhibited the growth
